Experimental data from US20210002725A1, “METHODS FOR THE DIAGNOSIS OF METABOLIC DISORDERS USING EPIMETABOLIC SHIFTERS, MULTIDIMENSIONAL INTRACELLULAR MOLECULES, OR ENVIRONMENTAL INFLUENCES” (Berg LLC, priority 2009, published 2021).

Columns and labels:
HDFa cells = experiment: SeaHorse XF analyzer OCR and ECAR; type: cell-based, human
Description: Environmental influencers (e.g., MIMs or Epi-shifters) may also be identified by changes in cellular energetics. One example of the measurement of cellular energetics are the real-time measures of the consumption of molecular oxygen and/or the change in pH of the media of a cell culture. For example, the ability of a potential epi-shifter to modulate the metabolic state of a cell may be analyzed using, for example, the XF24 Analyzer (Seahorse, Inc.). This technology allows for real time detection of oxygen and pH changes in a monolayer of cells in order to evaluate the bioenergetics of a cell microenvironment. The XF24 Analyzer measures and compares the rates of oxygen consumption (OCR), which is a measure of aerobic metabolism, and extracellular acidification (ECAR), which is a measure of glycolysis, both key indicators of cellular energetics.
(SeaHorse Biosciences Inc, North Billerica, Mass.).
In this experiment, the OCR and extracellular acidification rate (ECAR) in normal cells lines were obtained in the presence and absence of CoQ10 to determine baseline values. It was observed that in its native nutrient environment, the basal OCR rates in normal cells lines are different, and are usually a function of the physiological roles of the cells in the body.
For example, one set of experiments were conducted using the non-cancerous cell line HDFa, which is a human adult dermal fibroblast cell line. Fibroblasts are cells that primarily synthesize and secrete extracellular matrix (ECM) components and collagen that form the structural framework (stroma) for tissues. In addition, fibroblasts are known to serve as tissue ambassadors of numerous functions such as wound healing and localized immnomodulation. Under normal physiological conditions, energy requirements in normal fibroblasts are met using a combination of glycolysis and oxidative phosphorylation—the glycolysis providing the necessary nutrients for synthesis of ECM.
FIGS. 29 and 30 describe the OCR in HDFa and HASMC cells grown in physiologically normal glucose (about 4.6 mM) and high glucose (hyperglycemic) conditions.

Bcl-2 = experiment: Western blot of Bcl-2 in Skmel-28 melanoma cells treated with CoQ10 building block components; type: cell-based
Method: (§1) Skmel-28 melanoma cells were cultured in DMEM/F12 supplemented with 5% Fetal Bovine Serum (FBS) and 1× final concentration of Antibiotics. The cells were grown to 85% confluency and treated with building block components for 3, 6, 12 and 24 hours. The cells were then pelleted and a Western blot analysis was performed.
(§2) In the Western Blot Analysis, the cells were pelleted in cold PBS, lysed, and the protein levels were quantified using a BCA protein assay. The whole cell lysate was loaded in a 4% loading 12% running Tris-HCl gel. The proteins were then transferred to a nitrocellulose paper then blocked with a 5% milk Tris-buffered solution for 1 hour. The proteins were then exposed to primary antibodies (Bcl-2 and Caspase-3) overnight. The nitrocellulose paper was then exposed to Pico Chemilluminescent for 5 min and the protein expression was recorded. After exposure, actin was quantified using the same method. Using ImageJ the levels of protein expression were quantified. A t-Test was used to analyze for statistical significance.

Caspase-3 = experiment: Western blot of Caspase-3 in Skmel-28 melanoma cells treated with CoQ10 building block components; type: cell-based; conditions: for Caspase-3 expression / apoptotic effect: all concentrations and time points tested
Method: as §1, §2

Melanoma cells = experiment: Cell proliferation assay (live cell count) of building block combinations; type: cell-based
Method: Cell Proliferation Assay of the Combination of 4-Hydroxy-Benzoate with Benzoquinone: This set of experiments used a cell proliferation assay to assess the effect of combining different building block molecules on cell proliferation.
The first study examined the effect of combining 4-Hydroxy-Benzoate with Benzoquinone. Cells were incubated for 48 hours, after which a cell count was performed for the live cells. Each test group was compared to the control, and each combination groups were compared to Benzoquinone control. The compounds were statistically analyzed for the addition of Benzoquinone.
Additional studies were performed testing additional molar ratios. For the first test 4-Hydroxybenzoic were tested at concentrations of 500 nM, 1 μM, and 50 μM. These concentrations were tested in combination with 2,3-Dimethoxy-5-methyl-p-benzoquinone (Benzo). The concentration of Benzo tested were 25 μM, 50 μM, and 100 μM. Melanoma cells were grown to 80% confluency and seeded in 6 well plates at a concentration of 40K cells per well. The cells were treated with CoQ10, 4-Hydroxybenzoate, Benzo, and a combination of 4-Hydroxybenzoate/Benzo.
A T-test was performed with p<0.05 as statistically significant.

[1] = system: neonatal fibroblast cells; experiment: Cell proliferation assay (coulter counter); type: cell-based; conditions: HB 500 nM, 5 μM, 25 μM alone and with benzoquinone 25, 50, 100 μM; 24 hours
Method: A cell proliferation assay was also performed on neonatal fibroblast cells. The concentrations of HB tested were 500 nM, 5 μM, and 25 μM. HB was also tested in combination with benzoquinone at a concentrations of 25 μM, 50 μM, and 100 μM. […] The cells were trypsinized and quantified using a coulter counter.

tumor cells = conditions: cited from earlier work
[2] = all concentrations and time points tested
[3] = 24 hours, concentration not given

Work on COC1=C(OC)C(=O)C(C/C=C(\C)CC/C=C(\C)CC/C=C(\C)CC/C=C(\C)CC/C=C(\C)CC/C=C(\C)CC/C=C(\C)CC/C=C(\C)CC/C=C(\C)CCC=C(C)C)=C(C)C1=O [compound 31510] yielded an ECAR (HDFa cells; Hypoxia (5.5 mM), 50 μM) of 5 mpH/min, an ECAR (HDFa cells; Hypoxia (5.5 mM), 100 μM) of 5 mpH/min and an ECAR (HDFa cells; Hypoxia (22 mM), 50 μM) of 6 mpH/min. It also gave an ECAR (HDFa cells; Hypoxia (22 mM), 100 μM) of 8 mpH/min, an ECAR (HDFa cells; Normoxia (5.5 mM), 50 μM) of 6 mpH/min and an ECAR (HDFa cells; Normoxia (5.5 mM), 100 μM) of 6 mpH/min. It also gave an ECAR (HDFa cells; Normoxia (22 mM), 50 μM) of 5 mpH/min and an ECAR (HDFa cells; Normoxia (22 mM), 100 μM) of 5 mpH/min.
With COc1cc(C(=O)O)ccc1O [Vanillic acid] the Bcl-2 expression (Bcl-2; 500 nM, 24 hours) was “significantly reduce” and the Bcl-2 expression (Bcl-2; 5 μM, 24 hours) was “significantly reduce”.
For CC(=O)SCCNC(=O)CCNC(=O)[C@H](O)C(C)(C)COP(=O)(O)OP(=O)(O)OC[C@H]1O[C@@H](n2cnc3c(N)ncnc32)[C@H](O)[C@@H]1OP(=O)(O)O [Acetyl-CoA], the Bcl-2 expression (Bcl-2; [2]) was “no significant observed reduction” and the “Caspase-3 expression / apoptotic effect” value (Caspase-3) was “no significant observed reduction in Bcl-2 or increase in Caspase-3 expression”.
In the case of N[C@@H](Cc1ccc(O)cc1)C(=O)O [L-Tyrosine], the Bcl-2 expression (Bcl-2; 500 μM, 24 hours) is reported as “statistically significant decrease”.
For Cc1ncc(CO)c(CO)c1O [Pyridoxine], the Bcl-2 expression (Bcl-2; [3]) was “significant reduction”.
With O=C(O)C(=O)Cc1ccc(O)cc1 [4-Hydroxy-phenylpyruvate] the Bcl-2 expression (Bcl-2; 5 μM, 24 hours) was “significant reduction”, the Bcl-2 expression (Bcl-2; 15 μM, 24 hours) was “significant reduction” and the Caspase-3 expression (Caspase-3; 5 μM, 12 hours) was “significant increase”. The Caspase-3 expression (Caspase-3; 15 μM, 12 hours) was “significant increase”.
In the case of NC(Cc1ccc(O)cc1)C(=O)O (racemic) [DL-Tyrosine], the Bcl-2 expression (Bcl-2; 1 μM, 12 hours) is reported as “statistical decrease”, the Bcl-2 expression (Bcl-2; 5 μM, 24 hours) is reported as “statistical decrease” and the Bcl-2 expression (Bcl-2; 15 μM, 12 hours) is reported as “statistical decrease”. The Caspase-3 expression (Caspase-3; 5 μM, 12 hours) was “increase” and the Caspase-3 expression (Caspase-3; 15 μM, 12 hours) was “increase”.
In the case of COc1cc(C(O)C(=O)O)ccc1O (centres unmarked) [3-methoxy-4-hydroxymandelate], the Bcl-2 expression (Bcl-2; [2]) is reported as “downward trend” and the “Caspase-3 expression / apoptotic effect” value (Caspase-3) is reported as “no statistically significant apoptotic effect”.
With CC(C)(CO)[C@@H](O)C(=O)NCCCO [Panthenol] the Bcl-2 expression (Bcl-2; 25 μM, time not stated) was “significant reduction”.
With N[C@@H](Cc1ccccc1)C(=O)O [L-Phenylalanine] the Bcl-2 expression (Bcl-2; 100 μM, 3 hours) was “statistically significant decrease” and the Bcl-2 expression (Bcl-2; 100 μM, 12 hours) was “statistically significant decrease”.
With N[C@H](Cc1ccccc1)C(=O)O [D-Phenylalanine] the Bcl-2 expression (Bcl-2; 5 μM, 3 hours) was “significant reduction”, the Bcl-2 expression (Bcl-2; 5 μM, 6 hours) was “significant reduction” and the Bcl-2 expression (Bcl-2; 25 μM, 3 hours) was “significant reduction”. For the same compound, the Bcl-2 expression (Bcl-2; 25 μM, 6 hours) was “significant reduction”, the Bcl-2 expression (Bcl-2; 100 μM, 6 hours) was “significant reduction” and the Caspase-3 expression (Caspase-3; 5 μM, 6 hours) was “significant increase”. The Caspase-3 expression (Caspase-3; 100 μM, 6 hours) was “significant increase”.
For O=C(O)c1ccc(O)cc1 [4-Hydroxybenzoate], the “cell number vs control” value (Melanoma cells; 48 hours incubation) was “significant decrease in cell number”, the “cell proliferation vs control” value (Melanoma cells; additional molar ratios, HB 500 nM, 1 μM, 50 μM) was “significant decrease in cell proliferation” and the “reduction in fibroblast cells” value [1] was “did not show a significant reduction”.
For C=C1/C(=C\C=C2/CCC[C@]3(C)[C@@H]([C@H](C)CCCC(C)(C)O)CC[C@@H]23)C[C@@H](O)C[C@@H]1O [Vitamin D3, 1α, 25-dihydroxyvitamin D3], the “expression of anti-apoptotic proteins BCL2 and BCL-XL” value (tumor cells; Deeb et al. 2007) is listed as “repressing the expression”, the “expression of pro-apoptotic proteins (BAX, BAK, BAD)” value (tumor cells; Deeb et al. 2007) is listed as “inducing the expression” and the “gene transcription of p21WAFI/CIPI” value (tumor cells; Deeb et al. 2007) is listed as “induce gene transcription”. The “expression of VEGF” value (tumor cells; Masuda and Jones 2006) was “inhibit the expression” and the “proliferation of tumor-derived endothelial cells” value (tumor cells; Masuda and Jones 2006) was “inhibit the proliferation”.
In the case of C[C@@](O)(CCO)CC(=O)O [Mevalonic Acid], the Bcl-2 expression (Bcl-2; [2]) is reported as “no significant reduction” and the “Caspase-3 expression / apoptotic effect” value (Caspase-3) is reported as “no significant reduction in Bcl-2 expression or an increase in Caspase-3 expression”.
For NC(Cc1ccccc1)C(=O)O (racemic) [DL-Phenylalanine], the Bcl-2 expression (Bcl-2; [3]) was “statistically significant decrease” and the Caspase-3 expression (Caspase-3; 3 hours, concentration not given) was “statistically significant increase”.
For N[C@H](Cc1ccc(O)cc1)C(=O)O [D-Tyrosine], the Bcl-2 expression (Bcl-2; 5 μM, 12 hours) was “reduction”, the Bcl-2 expression (Bcl-2; 5 μM, 24 hours) was “reduction” and the Bcl-2 expression (Bcl-2; 15 μM, 12 hours) was “reduction”. For the same compound, the Bcl-2 expression (Bcl-2; 15 μM, 24 hours) was “reduction”, the Caspase-3 expression (Caspase-3; 1 μM, 12 hours) was “increase” and the Caspase-3 expression (Caspase-3; 1 μM, 24 hours) was “increase”. The Caspase-3 expression (Caspase-3; 5 μM, 3 hours) was “significantly increased”, the Caspase-3 expression (Caspase-3; 5 μM, 12 hours) was “significantly increased” and the Caspase-3 expression (Caspase-3; 5 μM, 24 hours) was “significantly increased”.
With CC(=O)NCC(=O)O [Acetylglycine] the Bcl-2 expression (Bcl-2; 5 μM, 12 hours) was “significant decrease”, the Bcl-2 expression (Bcl-2; 25 μM, 12 hours) was “significant decrease” and the Bcl-2 expression (Bcl-2; 100 μM, 24 hours) was “significant decrease”.
